Measured values reported in patent publication US20110230472A1, “RING-FUSED AZOLE DERIVATIVE HAVING PI3K-INHIBITING ACTIVITY” (Shionogi & Co., Ltd., priority 2008, published 2011).

molecular target: PI-3 kinase γ (Homo sapiens, UniProt P48736); experiment: PI3Kγ inhibitory activity, PI3-kinase HTRF assay (inhibition ratio); assay type: biochemical; conditions: 0.5 h; compound at 10 μmol/L
Procedure, shortened: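 PI3Kγ preincubated 10 min with compound and PIP2 substrate (MgCl2, DTT), then ATP added for 30 min at room temperature. PIP3 detected by HTRF (665/620 nm ratio) after 18 h. Inhibition ratio at 50 or 10 μmol/L, normalised to no-compound and no-enzyme controls.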

Sequence of PI-3 kinase γ (P48736 whole entry): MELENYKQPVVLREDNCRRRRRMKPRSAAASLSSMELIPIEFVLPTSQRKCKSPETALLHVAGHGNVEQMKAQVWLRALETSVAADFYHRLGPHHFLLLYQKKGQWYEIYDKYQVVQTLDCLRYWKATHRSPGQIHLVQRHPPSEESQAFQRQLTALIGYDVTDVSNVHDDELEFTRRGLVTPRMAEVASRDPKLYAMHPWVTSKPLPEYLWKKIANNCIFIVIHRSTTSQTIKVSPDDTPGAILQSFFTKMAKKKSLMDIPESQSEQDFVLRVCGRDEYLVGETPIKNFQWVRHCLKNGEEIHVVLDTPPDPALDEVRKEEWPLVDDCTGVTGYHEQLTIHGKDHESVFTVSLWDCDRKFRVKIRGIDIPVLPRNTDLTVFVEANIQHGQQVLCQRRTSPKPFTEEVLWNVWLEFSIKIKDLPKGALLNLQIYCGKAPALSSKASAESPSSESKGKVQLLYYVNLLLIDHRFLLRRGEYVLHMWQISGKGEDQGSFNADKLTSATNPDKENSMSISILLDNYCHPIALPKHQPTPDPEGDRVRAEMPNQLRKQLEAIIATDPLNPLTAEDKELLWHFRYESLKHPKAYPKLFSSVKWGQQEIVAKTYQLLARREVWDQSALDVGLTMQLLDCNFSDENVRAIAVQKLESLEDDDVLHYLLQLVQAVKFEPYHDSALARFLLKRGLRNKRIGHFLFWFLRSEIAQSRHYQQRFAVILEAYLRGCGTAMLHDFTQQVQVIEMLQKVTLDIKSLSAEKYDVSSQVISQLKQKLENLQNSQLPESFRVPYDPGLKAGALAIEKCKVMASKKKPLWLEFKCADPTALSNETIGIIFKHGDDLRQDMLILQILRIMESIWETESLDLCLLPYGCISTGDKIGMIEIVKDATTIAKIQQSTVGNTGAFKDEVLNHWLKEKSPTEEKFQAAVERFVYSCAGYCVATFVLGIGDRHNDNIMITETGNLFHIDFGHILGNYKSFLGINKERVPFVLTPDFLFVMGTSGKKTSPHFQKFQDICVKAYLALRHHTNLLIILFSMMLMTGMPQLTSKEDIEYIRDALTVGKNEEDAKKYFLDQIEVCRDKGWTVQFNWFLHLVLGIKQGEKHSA

Structure (SMILES)	inhibition at 10 µM [%]
CN1CCc2cc(N3CCn4nc(NC(=O)c5cc6cccnc6[nH]5)cc43)ccc2C1=O [Compound I-385]	91
CN1CCc2cc(N3CCn4nc(NC(=O)c5ccc(N)nc5)cc43)ccc2C1=O [Compound I-386]	≥ 95
CN1CCc2cc(N3CCn4nc(NC(=O)c5ccc(C(=O)O)s5)cc43)ccc2C1=O [Compound I-391]	≥ 95
COc1cc(N2CCc3nc(NC(=O)N/C(C)=C\C(=O)NC(C)(C)C)sc3C2)nc(OC)n1 [Compound I-392]	≥ 95
CN1CCc2cc(N3CCn4nc(NC(=O)c5csc(Br)c5)cc43)ccc2C1=O [Compound I-396]	76
COC(=O)c1csc(C(=O)Nc2cc3n(n2)CCN3c2ccc3c(c2)CCN(C)C3=O)c1 [Compound I-399]	≥ 95
CN1CCc2cc(N3CCn4nc(NC(=O)c5cc(C(=O)O)cs5)cc43)ccc2C1=O [Compound I-401]	93
CN1CCc2cc(N3CCn4nc(NC(=O)c5ccc(C(N)=O)s5)cc43)ccc2C1=O [Compound I-404]	78
CNC(=O)c1ccc(C(=O)Nc2cc3n(n2)CCN3c2ccc3c(c2)CCN(C)C3=O)s1 [Compound I-406]	≥ 95
COCCNC(=O)c1ccc(C(=O)Nc2cc3n(n2)CCN3c2ccc3c(c2)CCN(C)C3=O)s1 [Compound I-410]	≥ 95
CN1CCc2cc(N3CCn4nc(NC(=O)c5ccc(C(=O)NCC(=O)OC(C)(C)C)s5)cc43)ccc2C1=O [Compound I-411]	≥ 95
CN1CCc2cc(N3CCn4nc(NC(=O)c5csc(C(=O)OC(C)(C)C)c5)cc43)ccc2C1=O [Compound I-413]	87
CN1CCc2cc(N3CCn4nc(NC(=O)c5csc(C(=O)O)c5)cc43)ccc2C1=O [Compound I-418]	93
CC(C)NC(=O)c1cc(C(=O)Nc2cc3n(n2)CCN3c2ccc3c(c2)CCN(C)C3=O)cs1 [Compound I-419]	83
CC(C)c1cc(C(=O)Nc2cc3n(n2)CCN3c2ccc3c(c2)CCN(C)C3=O)cs1 [Compound I-427]	88
CC(C)NS(=O)(=O)c1cc(C(=O)Nc2cc3n(n2)CCN3c2ccc3c(c2)CCN(C)C3=O)cs1 [Compound I-428]	90
COc1cc(N2CCc3nc(NC(=O)Nc4ccccc4Cl)sc3C2)nc(OC)n1 [Compound I-430]	84
CC(C)N(C)C(=O)c1cc(C(=O)Nc2cc3n(n2)CCN3c2ccc3c(c2)CCN(C)C3=O)cs1 [Compound I-433]	≥ 95
CN1CCc2cc(N3CCn4nc(NC(=O)c5csc(S(=O)(=O)N6CCCC6)c5)cc43)ccc2C1=O [Compound I-436]	≥ 95
CNS(=O)(=O)c1cc(C(=O)Nc2cc3n(n2)CCN3c2ccc3c(c2)CCN(C)C3=O)cs1 [Compound I-437]	≥ 95
CN1CCc2cc(N3CCn4nc(NC(=O)c5csc(C(=O)NC(C)(C)C)c5)cc43)ccc2C1=O [Compound I-438]	86
CN1CCc2cc(N3CCn4nc(NC(=O)c5csc(C(=O)NCC(C)(C)C)c5)cc43)ccc2C1=O [Compound I-439]	≥ 95
CC(=O)c1ccc(C(=O)Nc2cc3n(n2)CCN3c2ccc3c(c2)CCN(C)C3=O)s1 [Compound I-440]	92
CC(C)NC(=O)c1ccccc1NC(=O)Nc1nc2c(s1)CN(C(=O)OCc1ccccc1)CC2 [Compound I-441]	88
Cc1ccsc1C(=O)Nc1cc2n(n1)CCN2c1ccc2c(c1)CCN(C)C2=O [Compound I-444]	84
CN1CCc2cc(N3CCn4nc(NC(=O)c5sccc5Cl)cc43)ccc2C1=O [Compound I-445]	89
Cc1ncsc1C(=O)Nc1cc2n(n1)CCN2c1ccc2c(c1)CCN(C)C2=O [Compound I-449]	≥ 95
CN1CCc2cc(N3CCn4nc(NC(=O)C(=O)c5cccs5)cc43)ccc2C1=O [Compound I-450]	≥ 95
CN(C)C(=O)c1ccc(C(=O)Nc2cc3n(n2)CCN3c2ccc3c(c2)CCN(C)C3=O)s1 [Compound I-451]	90
